Test results reported in patent publication US5977133A, “Pyridone antibiotic with improved safety profile” (priority 1998, dated 1999).
Where a name gives a salt, the structure may show the parent alone.

What was measured:
Type in all cases: cell-based
[1] = system: S. pneumoniae (CiproR); experiment: In vitro MIC, agar dilution; details: Streptococcus pneumoniae, read-out: MIC Range
[2] = system: E. faecium (CiproS); experiment: In vitro MIC, agar dilution; details: Enterococcus faecium
[3] = system: S. epidermidis (CiproS); experiment: In vitro MIC, agar dilution; details: Staphylococcus epidermidis
[4] = system: Klebsiella spp.; experiment: In vitro MIC, agar dilution
[5] = system: B. fragilis; experiment: In vitro MIC, agar dilution; details: Bacteroides fragilis
[6] = system: S. epidermidis (CiproR); experiment: In vitro MIC, agar dilution; details: Staphylococcus epidermidis
[7] = system: M. catarrhalis; experiment: In vitro MIC, agar dilution; details: Moraxella catarrhalis
[8] = system: E. faecium (CiproR); experiment: In vitro MIC, agar dilution; details: Enterococcus faecium; E. faecium (CiproR), 2 isolates; read-out: MIC Range
[9] = system: E. coli; experiment: In vitro MIC, agar dilution; details: Escherichia coli, 25 isolates
Summary of the method: (§1)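 MIC, the lowest compound level without growth versus a drug-free BHI control plate, with faint haze or scattered colonies scored as no growth. About 10^4 CFU was replicator-spotted from 1:100 dilutions, or 1:10 for slow-growing strains, and plates were read after ~20–24 h at 35–37 °C.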

[10] = system: Salmonella spp.; experiment: In vitro MIC, agar dilution; details: 23 isolates
Summary of the method: as §1

[11] = system: M. pneumoniae; experiment: In vitro MIC, agar dilution; details: Mycoplasmoides pneumoniae; M. pneumoniae, 7 isolates; read-out: MIC Range
[12] = system: C. freundii; experiment: In vitro MIC, agar dilution; details: Citrobacter freundii
[13] = system: S. pyogenes; experiment: In vitro MIC, agar dilution; details: Streptococcus pyogenes
[14] = system: H. influenzae; experiment: In vitro MIC, agar dilution; details: Haemophilus influenzae, H. influenzae, 18 isolates
[15] = system: C. difficile; experiment: In vitro MIC, agar dilution; details: Clostridioides difficile
[16] = system: S. pneumoniae (PenR); experiment: In vitro MIC, agar dilution; details: Streptococcus pneumoniae
[17] = system: Shigella spp.; experiment: microbe, parasite or virus in culture; details: read-out: MIC Range
[18] = system: S. aureus (CiproS); experiment: In vitro MIC, agar dilution; details: Staphylococcus aureus
[19] = system: P. mirabilis; experiment: In vitro MIC, agar dilution; details: Proteus mirabilis
[20] = system: Legionella spp.; experiment: microbe, parasite or virus in culture; details: Legionella
[21] = system: E. faecium (VanS); experiment: In vitro MIC, agar dilution; details: Enterococcus faecium
[22] = system: E. faecalis (VanS); experiment: In vitro MIC, agar dilution; details: Enterococcus faecalis
[23] = system: Enterobacter spp.; experiment: In vitro MIC, agar dilution
[24] = system: M. avium; experiment: In vitro MIC, agar dilution; details: Mycobacterium avium
[25] = system: C. perfringens; experiment: microbe, parasite or virus in culture; details: Clostridium perfringens
[26] = system: H. pylori; experiment: In vitro MIC, agar dilution; details: Helicobacter pylori
[27] = system: Providencia spp.; experiment: In vitro MIC, agar dilution
[28] = system: S. aureus (CiproR); experiment: In vitro MIC, agar dilution; details: Staphylococcus aureus
[29] = system: Enterococcus spp. (VanR); experiment: In vitro MIC, agar dilution
[30] = system: N. gonorrhoeae; experiment: In vitro MIC, agar dilution; details: Neisseria gonorrhoeae

## Cc1c(N2C[C@@H](N)C3(CC3)C2)c(F)cn2c(=O)c(C(=O)O)cc(C3CC3)c12 [Example 5, 1-cyclopropyl-8-(7(S)-amino-5-azaspiror2.41heptvl)-7-fluoro-9-methyl4-oxo-4H-quinolizine-3-carboxylic acid hydrochloride]
[1]
  MIC: 0.06 to 0.12 µg/mL
[2]
  MIC90: 0.5 µg/mL
[2]; read-out: MIC Range
  MIC: 0.25 to 0.5 µg/mL
[2]; E. faecium (CiproS), 16 isolates, read-out: MIC50
  MIC50: 0.5 µg/mL
[3]
  MIC90: 0.03 µg/mL
[3]; S. epidermidis (CiproS), 23 isolates, read-out: MIC50
  MIC50: 0.015 µg/mL
[3]; S. epidermidis (CiproS), 23 isolates, read-out: MIC Range
  MIC: 0.004 to 0.03 µg/mL
[4]; Klebsiella
  MIC50: 0.03 µg/mL
  MIC90: 0.06 µg/mL
[4]; Klebsiella spp., 29 isolates, read-out: MIC Range
  MIC: 0.002 to 0.12 µg/mL
[5]
  MIC50: 0.03 µg/mL
  MIC90: 0.03 µg/mL
[5]; B. fragilis, 18 isolates, read-out: MIC Range
  MIC: 0.015 to 0.06 µg/mL
[6]
  MIC90: 0.25 µg/mL
[6]; read-out: MIC Range
  MIC: 0.12 to 1 µg/mL
[6]; S. epidermidis (CiproR), 11 isolates, read-out: MIC50
  MIC50: 0.25 µg/mL
[7]
  MIC90: 0.03 µg/mL
[7]; M. catarrhalis, 18 isolates, read-out: MIC50
  MIC50: 0.015 µg/mL
[7]; M. catarrhalis, 18 isolates, read-out: MIC Range
  MIC: 0.015 to 0.03 µg/mL
[8]
  MIC: 0.5 to 4 µg/mL
[9]
  MIC: 0.004 to 0.015 µg/mL
[9]; read-out: MIC50
  MIC50: ≤ 0.004 µg/mL
[9]; read-out: MIC90
  MIC90: 0.015 µg/mL
[10]
  MIC: 0.004 to 0.12 µg/mL
[10]; read-out: MIC50
  MIC50: 0.015 µg/mL
[10]; read-out: MIC90
  MIC90: 0.03 µg/mL
[11]
  MIC: 0.015 to 0.03 µg/mL
[12]
  MIC90: 0.12 µg/mL
[12]; C. freundii, 20 isolates, read-out: MIC50
  MIC50: 0.015 µg/mL
[12]; C. freundii, 20 isolates, read-out: MIC Range
  MIC: 0.008 to 0.12 µg/mL
[13]
  MIC50: 0.03 µg/mL
  MIC90: 0.03 µg/mL
[13]; S. pyogenes, 21 isolates, read-out: MIC Range
  MIC: 0.015 to 0.06 µg/mL
[14]; read-out: MIC50
  MIC50: 0.002 µg/mL
[14]; read-out: MIC90
  MIC90: 0.008 µg/mL
[14]; read-out: MIC Range
  MIC: 0.001 to 0.008 µg/mL
[15]
  MIC90: 0.25 µg/mL
[15]; read-out: MIC Range
  MIC: 0.12 to 0.25 µg/mL
[15]; C. difficile, 10 isolates, read-out: MIC50
  MIC50: 0.25 µg/mL
[16]
  MIC90: 0.06 µg/mL
[16]; S. pneumoniae (PenR), 25 isolates, read-out: MIC50
  MIC50: 0.06 µg/mL
[16]; S. pneumoniae (PenR), 25 isolates, read-out: MIC Range
  MIC: 0.03 to 0.06 µg/mL
[17]
  MIC: 0.001 to 0.008 µg/mL
[18]
  MIC90: 0.015 µg/mL
[18]; S. aureus (CiproS), 21 isolates, read-out: MIC50
  MIC50: 0.015 µg/mL
[18]; S. aureus (CiproS), 21 isolates, read-out: MIC Range
  MIC: 0.008 to 0.03 µg/mL
[19]
  MIC50: 0.03 µg/mL
  MIC90: 0.06 µg/mL
[19]; read-out: MIC Range
  MIC: 0.015 to 0.12 µg/mL
[20]
  MIC50: 0.25 µg/mL
  MIC90: 0.25 µg/mL
[20]; read-out: MIC Range
  MIC: 0.12 to 0.25 µg/mL
[21]
  MIC90: 0.25 µg/mL
[21]; read-out: MIC Range
  MIC: 0.06 to 0.5 µg/mL
[21]; E. faecium (VanS), 11 isolates, read-out: MIC50
  MIC50: 0.25 µg/mL
[22]
  MIC90: 0.25 µg/mL
[22]; read-out: MIC Range
  MIC: 0.06 to 0.25 µg/mL
[22]; E. faecalis (VanS), 17 isolates, read-out: MIC50
  MIC50: 0.12 µg/mL
[23]; Enterobacter
  MIC90: 0.03 µg/mL
[23]; Enterobacter spp., 35 isolates, read-out: MIC50
  MIC50: 0.015 µg/mL
[23]; Enterobacter spp., 35 isolates, read-out: MIC Range
  MIC: 0.004 to 0.12 µg/mL
[24]; read-out: MIC Range
  MIC: 0.25 to 4 µg/mL
[24]; M. avium, 20 isolates, read-out: MIC50
  MIC50: 1 µg/mL
[24]; M. avium, 20 isolates, read-out: MIC90
  MIC90: 2 µg/mL
[25]
  MIC50: 0.06 µg/mL
[25]; C. perfringens, 13 isolates
  MIC90: 0.12 µg/mL
[25]; read-out: MIC Range
  MIC: 0.06 to 0.12 µg/mL
[26]
  MIC50: 0.03 µg/mL
  MIC90: 0.06 µg/mL
[26]; H. pylori, 17 isolates, read-out: MIC Range
  MIC: 0.015 to 0.06 µg/mL
[27]; Providencia
  MIC90: 0.06 µg/mL
[27]; Providencia spp., 28 isolates, read-out: MIC50
  MIC50: 0.015 µg/mL
[27]; Providencia spp., 28 isolates, read-out: MIC Range
  MIC: 0.008 to 0.25 µg/mL
[28]
  MIC90: 0.25 µg/mL
[28]; S. aureus (CiproR), 25 isolates, read-out: MIC50
  MIC50: 0.12 µg/mL
[28]; S. aureus (CiproR), 25 isolates, read-out: MIC Range
  MIC: 0.03 to 0.5 µg/mL
[29]; Enterococcus
  MIC90: 0.5 µg/mL
[29]; Enterococcus spp. (VanR), 21 isolates, read-out: MIC50
  MIC50: 0.5 µg/mL
[29]; Enterococcus, read-out: MIC Range
  MIC: 0.25 to 4 µg/mL
[30]
  MIC90: 0.015 µg/mL
[30]; N. gonorrhoeae, 12 isolates, read-out: MIC50
  MIC50: 0.002 µg/mL
[30]; N. gonorrhoeae, 12 isolates, read-out: MIC Range
  MIC: 0.002 to 0.015 µg/mL
